Measurements reported in ChEMBL document CHEMBL4024702, “Covalent Modifiers: A Chemical Perspective on the Reactivity of α,β-Unsaturated Carbonyls with Thiols via Hetero-Michael Addition Reactions” (J Med Chem, 2017).

Tests used:
[1] = Glutathione reactivity of the compound in DMSO and phosphate buffer assessed as second order rate constant for adduct formation
[2] = Thiol reactivity of the compound in DMSO/PBS buffer assessed as adduct formation by measuring half life of parent compound by 1H NMR analysis; type: physicochemical
[3] = Thiol reactivity of the compound in PBS/DMSO buffer assessed as pseudo-first order rate constant for adduct formation
[4] = test system: rhinovirus B14; test: Irreversible inhibition of human rhinovirus serotype 14 3C protease assessed as ratio of Kobs/I by spectrofluorimetric analysis
[5] = test system: rhinovirus B14; test: Antiviral activity against rhinovirus serotype 14 infected in human H1HeLa cells after 2 days by XTT/PMS dye based assay; type: functional, cell-based; conditions: Rhinovirus B, H1-HeLa, 48 h
[6] = Cytotoxicity against human H1HeLa cells after 2 days by XTT/PMS dye based assay; type: cell-based, H1-HeLa
[7] = Glutathione reactivity of the compound in PBS buffer assessed as rate constant for 1,4-adduct formation at pH 7.4
[8] = Cysteamine reactivity of the compound in TRIS-HCL assessed as second order rate constant at 40 uM and pH 7.4

## C/C=C(\C)C(=O)OC
[1]
  K: 0.007 M⁻¹ s⁻¹

## C=C(C)C=O
[1]
  K: 203 M⁻¹ s⁻¹

## N#CC(c1ccncc1)C(SCCO)C1CC1 (stereo unspecified)
[2]
  t1/2: 11.9 min

## COC(=O)/C=C/CNC(=O)c1ccc([N+](=O)[O-])cc1
[3]
  K: 5.9 ×10⁻⁴ /s

## CC(C)C[C@H](NC(=O)OCc1ccccc1)C(=O)N[C@@H](Cc1ccccc1)C(=O)N[C@H](/C=C/C(=O)N(C)C)CCC(N)=O
[4]
  Ratio: 1300 M⁻¹ s⁻¹
[5]
  EC50: 56 µM
[6]
  CC50 at 48 h: > 100 µM

## C/C=C(\C)C(C)=O
[1]
  K: 0.779 M⁻¹ s⁻¹

## CC(C)C[C@H](NC(=O)OCc1ccccc1)C(=O)N[C@@H](Cc1ccccc1)C(=O)N[C@H](/C=C/C(=O)N1CC=CC1)CCC(N)=O
[4]
  Ratio: 8500 M⁻¹ s⁻¹
[5]
  EC50: > 44 µM
[6]
  CC50 at 48 h: 44 µM

## CCCCC/C=C/C(=O)OC
[1]
  K: 0.785 M⁻¹ s⁻¹

## CCCC/C=C/C(C)=O
[1]
  K: 11.4 M⁻¹ s⁻¹

## CCOC(=O)/C=C/[C@H](CCC(N)=O)NC(=O)[C@H](Cc1ccccc1)NC(=O)[C@H](CC(C)C)NC(=O)OCc1ccccc1
[6]
  CC50 at 48 h: > 320 µM

## Cc1csc(C(C#N)C(SCCO)C2CC2)n1 (stereo unspecified)
[2]
  t1/2: 4.8 min

## CCCCC/C=C/C=O
[1]
  K: 18 M⁻¹ s⁻¹

## CC(C)=CC=O
[1]
  K: 1.71 M⁻¹ s⁻¹

## N[C@@H](CCC(=O)N[C@@H](CSCCC=O)C(=O)NCC(=O)O)C(=O)O
[7]
  K: 120 M⁻¹ s⁻¹

## N#CC(C(N)=O)C(SCCO)c1ccccc1 (stereo unspecified)
[2]
  t1/2: < 1 min

## C=CC(=O)OCCCC
[1]
  K: 8.54 M⁻¹ s⁻¹

## C=CC(=O)Nc1ccc([N+](=O)[O-])cc1
[3]
  K: 8 ×10⁻² /s

## CC(=O)C=C(C)C
[1]
  K: 0.208 M⁻¹ s⁻¹

## O=C/C=C/c1ccccc1
[8]
  K: 0.64 M⁻¹ s⁻¹

## CCOC(=O)C(C(=O)c1ccc(OC)cc1OC)C(SCCN)c1ccc(OC)c(OC)c1 (stereo unspecified)
[8]
  K: 0.28 M⁻¹ s⁻¹

## N[C@@H](CSCCC=O)C(=O)O
[7]
  K: 220 M⁻¹ s⁻¹

## CC(C)C[C@H](NC(=O)OCc1ccccc1)C(=O)N[C@@H](Cc1ccccc1)C(=O)N[C@H](/C=C/C(=O)c1ccc([N+](=O)[O-])cc1)CCC(N)=O
[4]
  Ratio: 310000 M⁻¹ s⁻¹
[5]
  EC50: > 32 µM
[6]
  CC50 at 48 h: 32 µM

## COc1ccc(C(=O)C(c2ccc([N+](=O)[O-])cc2)C(SCCN)c2ccc(OC)c(OC)c2)c(OC)c1 (stereo unspecified)
[8]
  K: 0.29 M⁻¹ s⁻¹

## Cc1csc(C(C#N)C(SCCO)c2ccccc2)n1 (stereo unspecified)
[2]
  t1/2: < 1 min

## COc1ccc(C(=O)CC(SCCN)c2ccc(OC)c(OC)c2)c(OC)c1 (stereo unspecified)
[8]
  K: 0.19 M⁻¹ s⁻¹

## CS(=O)(=O)/C=C/CNC(=O)c1ccc([N+](=O)[O-])cc1
[3]
  K: 4 ×10⁻³ /s

## CCCC/C=C/C=C/C=O
[1]
  K: 3.49 M⁻¹ s⁻¹

## COc1ccc(C(C(=O)c2ccc(OC)cc2OC)C(SCCN)c2ccc(OC)c(OC)c2)cc1 (stereo unspecified)
[8]
  K: 0.0086 M⁻¹ s⁻¹

## COc1ccc(C(=O)C(C)C(SCCN)c2ccc(OC)c(OC)c2)c(OC)c1 (stereo unspecified)
[8]
  K: 0.0075 M⁻¹ s⁻¹

## C=CS(=O)(=O)Nc1ccccc1
[3]
  K: 7.2 ×10⁻² /s

## COC(=O)/C=C/CNC(=O)c1ccc(OC)cc1
[3]
  K: 3.7 ×10⁻⁴ /s

## COC(=O)/C=C\[C@H](CCC(N)=O)NC(=O)[C@H](Cc1ccccc1)NC(=O)[C@H](CC(C)C)NC(=O)OCc1ccccc1
[4]
  Ratio: 2400 M⁻¹ s⁻¹
[5]
  EC50: 4.2 µM
[6]
  CC50 at 48 h: > 320 µM

## CCNC(=O)/C=C/[C@H](CCC(N)=O)NC(=O)[C@H](Cc1ccccc1)NC(=O)[C@H](CC(C)C)NC(=O)OCc1ccccc1
[4]
  Ratio: 350 M⁻¹ s⁻¹
[5]
  EC50: > 320 µM
[6]
  CC50 at 48 h: > 320 µM

## COc1cc(/C=C/C(=O)CC(=O)/C=C/c2ccc(O)c(OC)c2)ccc1O
[8]
  K: 0.066 M⁻¹ s⁻¹

## C=CCOC(=O)C=C
[1]
  K: 19.6 M⁻¹ s⁻¹

## CCOC(=O)/C(F)=C/[C@H](CCC(N)=O)NC(=O)[C@H](Cc1ccccc1)NC(=O)[C@H](CC(C)C)NC(=O)OCc1ccccc1
[4]
  Ratio: 60 M⁻¹ s⁻¹
[5]
  EC50: > 320 µM
[6]
  CC50 at 48 h: > 320 µM

## C=CS(=O)(=O)Nc1ccc(OC)cc1
[3]
  K: 2.8 ×10⁻² /s

## C/C=C/C(=O)OC
[1]
  K: 0.164 M⁻¹ s⁻¹

## CCN(CC)c1ccc(C(=O)/C=C/[C@H](CCC(N)=O)NC(=O)[C@H](Cc2ccccc2)NC(=O)[C@H](CC(C)C)NC(=O)OCc2ccccc2)cc1
[4]
  Ratio: 4500 M⁻¹ s⁻¹
[5]
  EC50: > 25 µM
[6]
  CC50 at 48 h: 25 µM

## C=CC(=O)Nc1ccc(OC)cc1
[3]
  K: 3.9 ×10⁻⁵ /s

## CC(O)C(CC1NC(C(=O)O)CS1)SC[C@H](C)C(=O)O (stereo partly specified)
[7]
  K: 1.1 M⁻¹ s⁻¹

## C=CC(=O)OCC
[1]
  K: 10.6 M⁻¹ s⁻¹
